Source: patent US20210115104A1, “AMYLIN ANALOGUES” (Zealand Pharma A/S, priority 2015, published 2021)
*1 amine or outer side, *2 acyl side, *3 side chain or, on linkers, in order; H or OH if unused. Where a SMILES comes first, the peptide text is derived from it. Bridges are numbered along the chain shown (N, C = ends). [ ]: non-standard residue; d: D form. The star is where a group is joined. C20 diacid = O=C(O)CCCCCCCCCCCCCCCCCCC(=O)*; γGlu = O=C(O)[C@H](CCC(=O)[*:2])N[*:1]; Hyp = O=C(O)[C@@H]1C[C@@H](O)CN1; NMeI = CC[C@H](C)[C@H](NC)C(=O)O; Aad = N[C@@H](CCCC(=O)O)C(=O)O; Sar = CNCC(=O)O

Columns and labels:
[1] = target: T1, human calcitonin receptor (hCTR2) (Homo sapiens, UniProt P30988); assay: hCTR2 cAMP assay (AlphaScreen) in COS7 cells; assay type: cell-based; conditions: cAMP induction, COS7 cells expressing hCTR2; Table 1; read-out: hCTR2 EC50
T1 construct: expressed in transfected cells
T1 sequence (P30988 25-474): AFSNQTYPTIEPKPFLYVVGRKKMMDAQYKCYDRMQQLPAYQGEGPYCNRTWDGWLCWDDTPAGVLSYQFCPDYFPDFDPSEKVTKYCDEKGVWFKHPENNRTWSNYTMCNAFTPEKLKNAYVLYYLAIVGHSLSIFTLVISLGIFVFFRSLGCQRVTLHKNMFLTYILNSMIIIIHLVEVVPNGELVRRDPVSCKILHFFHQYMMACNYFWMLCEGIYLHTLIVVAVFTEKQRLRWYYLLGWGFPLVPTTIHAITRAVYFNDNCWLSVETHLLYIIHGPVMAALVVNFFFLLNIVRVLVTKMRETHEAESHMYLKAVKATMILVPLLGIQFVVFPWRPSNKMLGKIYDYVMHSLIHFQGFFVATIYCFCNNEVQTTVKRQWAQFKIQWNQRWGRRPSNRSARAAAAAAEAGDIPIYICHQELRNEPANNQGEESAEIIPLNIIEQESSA
In short: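 Stable hCTR2 clone in RAMP-naïve COS7 cells stimulated 15 min at 37 °C with increasing peptide concentrations in Tyrode buffer pH 7.4 containing IBMX and 0.1% casein. cAMP in lysates measured by AlphaScreen; EC50 from 4-parameter logistic fit.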

[2] = target: T2, human amylin receptor 3 (hAMYR3), hCTR2 co-expressed with hRAMP3 (Homo sapiens, UniProt O60896+P30988); assay: hAMYR3 cAMP assay (AlphaScreen) in COS7 cells; assay type: cell-based; conditions: cAMP induction, COS7 cells expressing hAMYR3; Table 1; read-out: hAMYR3 EC50
T2 construct: expressed in transfected cells
T2 sequence (P30988 25-474): T1 sequence (P30988 25-474)
T2 sequence (O60896 24-148 partner): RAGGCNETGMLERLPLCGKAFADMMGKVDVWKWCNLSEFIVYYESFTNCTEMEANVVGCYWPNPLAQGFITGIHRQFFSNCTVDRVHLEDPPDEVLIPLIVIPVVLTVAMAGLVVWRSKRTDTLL
In short: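 Stable COS7 clone co-expressing hCTR2 and hRAMP3 was exposed to increasing peptide concentrations in Tyrode buffer (pH 7.4) with 100 µM IBMX and 0.1% casein for 15 min at 37 °C. Lysate cAMP was measured by AlphaScreen; EC50 came from 4-parameter logistic fitting.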

| Structure (SMILES) | EC50 [1] | EC50 [2] |
| --- | --- | --- |
| CC[C@H](C)[C@@H](C(=O)N[C@@H](CC(C)C)C(=O)N[C@@H](CO)C(=O)N[C@@H](CO)C(=O)N[C@H](C(=O)N[C@@H](CCC(=O)O)C(=O)N[C@H](C(=O)NCC(=O)N[C@@H](CO)C(=O)N[C@@H](CCCC(=O)O)C(=O)N[C@H](C(=O)N1C[C@H](O)C[C@H]1C(N)=O)[C@@H](C)O)C(C)C)[C@@H](C)O)N(C)C(=O)[C@H](C)NC(=O)CN(C)C(=O)[C@H](Cc1ccccc1)NC(=O)[C@H](CO)NC(=O)[C@H](CO)NC(=O)[C@H](CCCNC(=N)N)NC(=O)[C@H](CCC(N)=O)NC(=O)[C@H](CC(C)C)NC(=O)[C@H](Cc1ccccc1)NC(=O)[C@H](Cc1c[nH]cn1)NC(=O)[C@H](C)NC(=O)[C@H](CC(C)C)NC(=O)[C@H](CCCNC(=N)N)NC(=O)[C@H](CCC(N)=O)NC(=O)[C@@H](NC(=O)[C@H](C)NC(=O)[C@@H]1CSSC[C@H](NC(=O)[C@H](CCCNC(=N)N)NC(=O)CC[C@H](NC(=O)CCCCCCCCCCCCCCCCCCC(=O)O)C(=O)O)C(=O)N[C@@H](CC(N)=O)C(=O)N[C@@H]([C@@H](C)O)C(=O)N[C@@H](C)C(=O)N[C@@H]([C@@H](C)O)C(=O)N1)[C@@H](C)O [Compound 75, [19CD]-isoGlu-R-C( )-NTAT-C( )-ATQRLAHFLQRSSF-Gly(Me)-A-Ile(Me)-LSSTEVGS-Aad-T-Hyp-NH2] ({C20 diacid-γGlu}-RCNTATCATQRLAHFLQRSSF[Sar]A[NMeI]LSSTEVGS[Aad]T[Hyp]-NH2; disulfide 2-7) | 0.36 nM | 0.26 nM |
| CC[C@H](C)[C@@H](C(=O)N[C@@H](CC(C)C)C(=O)N[C@@H](CO)C(=O)N[C@@H](CO)C(=O)N[C@H](C(=O)N[C@@H](CCC(=O)O)C(=O)N[C@H](C(=O)NCC(=O)N[C@@H](CO)C(=O)N[C@@H](CC(N)=O)C(=O)N[C@H](C(=O)N1CCC[C@H]1C(N)=O)[C@@H](C)O)C(C)C)[C@@H](C)O)N(C)C(=O)[C@H](C)NC(=O)CN(C)C(=O)[C@H](Cc1ccccc1)NC(=O)[C@H](CO)NC(=O)[C@H](CO)NC(=O)[C@H](CCCNC(=N)N)NC(=O)[C@H](CCC(N)=O)NC(=O)[C@H](CC(C)C)NC(=O)[C@H](Cc1ccccc1)NC(=O)[C@H](Cc1c[nH]cn1)NC(=O)[C@H](C)NC(=O)[C@H](CC(C)C)NC(=O)[C@H](CCCNC(=N)N)NC(=O)[C@H](CCC(=O)O)NC(=O)[C@@H](NC(=O)[C@H](C)NC(=O)[C@@H]1CSSC[C@H](NC(=O)[C@H](CCCNC(=N)N)NC(=O)CC[C@H](NC(=O)CCCCCCCCCCCCCCCCCCC(=O)O)C(=O)O)C(=O)NCC(=O)N[C@@H]([C@@H](C)O)C(=O)N[C@@H](C)C(=O)N[C@@H]([C@@H](C)O)C(=O)N1)[C@@H](C)O [Compound 78, [19CD]-isoGlu-R-C( )-GTAT-C( )-ATERLAHFLQRSSF-Gly(Me)-A-Ile(Me)-LSSTEVGSNTP-NH2] ({C20 diacid-γGlu}-RCGTATCATERLAHFLQRSSF[Sar]A[NMeI]LSSTEVGSNTP-NH2; disulfide 2-7) | 0.15 nM | 0.24 nM |

Second part, the compound after the results:

| EC50 [1] | EC50 [2] | Structure (SMILES) |
| --- | --- | --- |
| 0.21 nM | 0.53 nM | CC[C@H](C)[C@@H](C(=O)N[C@@H](CC(C)C)C(=O)N[C@@H](CO)C(=O)N[C@@H](CO)C(=O)N[C@H](C(=O)N[C@@H](CCC(=O)O)C(=O)N[C@H](C(=O)NCC(=O)N[C@@H](CO)C(=O)N[C@H](C(=O)N[C@H](C(=O)N1CCC[C@H]1C(N)=O)[C@@H](C)O)[C@@H](C)O)C(C)C)[C@@H](C)O)N(C)C(=O)[C@H](C)NC(=O)CN(C)C(=O)[C@H](Cc1ccccc1)NC(=O)[C@H](CO)NC(=O)[C@H](CO)NC(=O)[C@H](CCCNC(=N)N)NC(=O)[C@H](CCC(N)=O)NC(=O)[C@H](CC(C)C)NC(=O)[C@H](Cc1ccccc1)NC(=O)[C@H](CC(=O)O)NC(=O)[C@H](C)NC(=O)[C@H](CC(C)C)NC(=O)[C@H](CCCNC(=N)N)NC(=O)[C@H](CCC(N)=O)NC(=O)[C@@H](NC(=O)[C@H](C)NC(=O)[C@@H]1CSSC[C@H](NC(=O)[C@H](CCCNC(=N)N)NC(=O)CC[C@H](NC(=O)CCCCCCCCCCCCCCCCCCC(=O)O)C(=O)O)C(=O)N[C@@H](CC(N)=O)C(=O)N[C@@H]([C@@H](C)O)C(=O)N[C@@H](C)C(=O)N[C@@H]([C@@H](C)O)C(=O)N1)[C@@H](C)O [Compound 82, [19CD]-isoGlu-R-C( )-NTAT-C( )-ATQRLADFLQRSSF-Gly(Me)-A-Ile(Me)-LSSTEVGSTTP-NH2] ({C20 diacid-γGlu}-RCNTATCATQRLADFLQRSSF[Sar]A[NMeI]LSSTEVGSTTP-NH2; disulfide 2-7) |
| 0.13 nM | 0.32 nM | CC[C@H](C)[C@@H](C(=O)N[C@@H](CC(C)C)C(=O)N[C@@H](CO)C(=O)N[C@@H](CO)C(=O)N[C@H](C(=O)N[C@@H](CCC(=O)O)C(=O)N[C@H](C(=O)NCC(=O)N[C@@H](CO)C(=O)N[C@H](C(=O)N[C@H](C(=O)N1C[C@H](O)C[C@H]1C(N)=O)[C@@H](C)O)[C@@H](C)O)C(C)C)[C@@H](C)O)N(C)C(=O)[C@H](C)NC(=O)CN(C)C(=O)[C@H](Cc1ccccc1)NC(=O)[C@H](CO)NC(=O)[C@H](CO)NC(=O)[C@H](CCCNC(=N)N)NC(=O)[C@H](CCC(N)=O)NC(=O)[C@H](CC(C)C)NC(=O)[C@H](Cc1ccccc1)NC(=O)[C@H](CC(=O)O)NC(=O)[C@H](C)NC(=O)[C@H](CC(C)C)NC(=O)[C@H](CCCNC(=N)N)NC(=O)[C@H](CCC(N)=O)NC(=O)[C@@H](NC(=O)[C@H](C)NC(=O)[C@@H]1CSSC[C@H](NC(=O)[C@H](CCCNC(=N)N)NC(=O)CC[C@H](NC(=O)CCCCCCCCCCCCCCCCCCC(=O)O)C(=O)O)C(=O)N[C@@H](CC(N)=O)C(=O)N[C@@H]([C@@H](C)O)C(=O)N[C@@H](C)C(=O)N[C@@H]([C@@H](C)O)C(=O)N1)[C@@H](C)O [Compound 83, [19CD]-isoGlu-R-C( )-NTAT-C( )-ATQRLADFLQRSSF-Gly(Me)-A-Ile(Me)-LSSTEVGSTT-Hyp-NH2] ({C20 diacid-γGlu}-RCNTATCATQRLADFLQRSSF[Sar]A[NMeI]LSSTEVGSTT[Hyp]-NH2; disulfide 2-7) |
| 0.1 nM | 0.14 nM | CC[C@H](C)[C@@H](C(=O)N[C@@H](CC(C)C)C(=O)N[C@@H](CO)C(=O)N[C@@H](CO)C(=O)N[C@H](C(=O)N[C@@H](CCC(=O)O)C(=O)N[C@H](C(=O)NCC(=O)N[C@@H](CO)C(=O)N[C@@H](CO)C(=O)N[C@H](C(=O)N1CCC[C@H]1C(N)=O)[C@@H](C)O)C(C)C)[C@@H](C)O)N(C)C(=O)[C@H](C)NC(=O)CN(C)C(=O)[C@H](Cc1ccccc1)NC(=O)[C@H](CO)NC(=O)[C@H](CO)NC(=O)[C@H](CCCNC(=N)N)NC(=O)[C@H](CCC(N)=O)NC(=O)[C@H](CC(C)C)NC(=O)[C@H](Cc1ccccc1)NC(=O)[C@H](Cc1c[nH]cn1)NC(=O)[C@H](C)NC(=O)[C@H](CC(C)C)NC(=O)[C@H](CCCNC(=N)N)NC(=O)[C@H](CCC(N)=O)NC(=O)[C@@H](NC(=O)[C@H](C)NC(=O)[C@@H]1CSSC[C@H](NC(=O)[C@H](CCCNC(=N)N)NC(=O)CC[C@H](NC(=O)CCCCCCCCCCCCCCCCCCC(=O)O)C(=O)O)C(=O)N[C@@H](CC(N)=O)C(=O)N[C@@H]([C@@H](C)O)C(=O)N[C@@H](C)C(=O)N[C@@H]([C@@H](C)O)C(=O)N1)[C@@H](C)O [Compound 85, [19CD]-isoGlu-R-C( )-NTAT-C( )-ATQRLAHFLQRSSF-Gly(Me)-A-Ile(Me)-LSSTEVGSSTP-NH2] ({C20 diacid-γGlu}-RCNTATCATQRLAHFLQRSSF[Sar]A[NMeI]LSSTEVGSSTP-NH2; disulfide 2-7) |
